Source: patent US4032625A, “Bone-seeking technetium-99m complex” (priority 1975, dated 1977)
Where two headings read alike, the source gives them in different places.

Conditions: 2 Hrs

**Q.** What does the source list for `[85Sr]` [^85 Sr]?
**A.** % Dose in Whole Organ: Blood (0.01 mg/kg AEDP): 2.99 % Dose; % Dose in Whole Organ: Kidneys (0.01 mg/kg AEDP): 0.329 % Dose; % Dose in Whole Organ: Liver (0.01 mg/kg AEDP): 0.568 % Dose; % Dose in Whole Organ: Marrow (0.01 mg/kg AEDP): 0.465 % Dose; % Dose in Whole Organ: Muscle (0.01 mg/kg AEDP): 4.98 % Dose; % Dose in Whole Organ: W. Femur (0.01 mg/kg AEDP): 3.22 % Dose; % Dose in Whole Organ: W. Tibia (0.01 mg/kg AEDP): 2.71 % Dose; % Dose/1% Body weight: Blood (0.01 mg/kg AEDP): 0.427 % Dose/1% Body weight; % Dose/1% Body weight: Bone Ave (0.01 mg/kg AEDP): 10.33 % Dose/1% Body weight; % Dose/1% Body weight: Femur (0.01 mg/kg AEDP): 10.38 % Dose/1% Body weight; % Dose/1% Body weight: Kidneys (0.01 mg/kg AEDP): 0.567 % Dose/1% Body weight; % Dose/1% Body weight: Liver (0.01 mg/kg AEDP): 0.177 % Dose/1% Body weight; % Dose/1% Body weight: Marrow (0.01 mg/kg AEDP): 0.211 % Dose/1% Body weight; % Dose/1% Body weight: Muscle (0.01 mg/kg AEDP): 0.116 % Dose/1% Body weight; % Dose/1% Body weight: Pelvis (0.01 mg/kg AEDP): 10.66 % Dose/1% Body weight; % Dose/1% Body weight: Spine (0.01 mg/kg AEDP): 8.98 % Dose/1% Body weight; % Dose/1% Body weight: Tibia (0.01 mg/kg AEDP): 11.28 % Dose/1% Body weight; % Dose: Urine (0.01 mg/kg AEDP): 20.97 % Dose; % Dose in Whole Organ: Blood (0.01 mg/kg EHDP): 3.19 % Dose; % Dose in Whole Organ: Kidneys (0.01 mg/kg EHDP): 0.43 % Dose; % Dose in Whole Organ: Liver (0.01 mg/kg EHDP): 0.74 % Dose; % Dose in Whole Organ: Marrow (0.01 mg/kg EHDP): 0.42 % Dose; % Dose in Whole Organ: One Femur (0.01 mg/kg EHDP): 2.83 % Dose; % Dose/1%-body weight: Blood (0.01 mg/kg EHDP): 0.456 % Dose/1%-body weight; % Dose/1%-body weight: Femur (0.01 mg/kg EHDP): 9.70 % Dose/1%-body weight; % Dose/1%-body weight: Kidney (0.01 mg/kg EHDP): 0.655 % Dose/1%-body weight; % Dose/1%-body weight: Liver (0.01 mg/kg EHDP): 0.206 % Dose/1%-body weight; % Dose/1%-body weight: Marrow (0.01 mg/kg EHDP): 0.192 % Dose/1%-body weight; % Dose: Urine (0.01 mg/kg EHDP): 23.66 % Dose; % Dose in Whole Organ: Blood (0.01 mg/kg MDP): 3.27 % Dose; % Dose in Whole Organ: Kidneys (0.01 mg/kg MDP): 0.34 % Dose; % Dose in Whole Organ: Liver (0.01 mg/kg MDP): 0.65 % Dose; % Dose in Whole Organ: Marrow (0.01 mg/kg MDP): 0.53 % Dose; % Dose in Whole Organ: Muscle (0.01 mg/kg MDP): 5.69 % Dose; % Dose in Whole Organ: One Femur (0.01 mg/kg MDP): 3.46 % Dose; % Dose/1% Body weight: Blood (0.01 mg/kg MDP): 0.47 % Dose/1% body weight; % Dose/1% Body weight: Femur (0.01 mg/kg MDP): 13.93 % Dose/1% body weight; % Dose/1% Body weight: Kidneys (0.01 mg/kg MDP): 0.54 % Dose/1% body weight; % Dose/1% Body weight: Liver (0.01 mg/kg MDP): 0.16 % Dose/1% body weight; % Dose/1% Body weight: Marrow (0.01 mg/kg MDP): 0.24 % Dose/1% body weight; % Dose/1% Body weight: Muscle (0.01 mg/kg MDP): 0.13 % Dose/1% body weight; % Dose/1% Body weight: Pelvis (0.01 mg/kg MDP): 13.55 % Dose/1% body weight; % Dose/1% Body weight: Spine (0.01 mg/kg MDP): 12.78 % Dose/1% body weight; % Dose/1% Body weight: Tibia (0.01 mg/kg MDP): 7.14 % Dose/1% body weight; % Dose/1% body weight: Ave Bone (0.01 mg/kg MDP): 11.85 % Dose/1% body weight; % Dose: Urine (0.01 mg/kg MDP): 10.3 % Dose; % Dose in Whole Organ: Blood (0.05 mg/kg AEDP): 2.50 % Dose; % Dose in Whole Organ: Kidneys (0.05 mg/kg AEDP): 0.353 % Dose; % Dose in Whole Organ: Liver (0.05 mg/kg AEDP): 0.613 % Dose; % Dose in Whole Organ: Marrow (0.05 mg/kg AEDP): 0.486 % Dose; % Dose in Whole Organ: Muscle (0.05 mg/kg AEDP): 5.09 % Dose; % Dose in Whole Organ: W. Femur (0.05 mg/kg AEDP): 3.51 % Dose; % Dose in Whole Organ: W. Tibia (0.05 mg/kg AEDP): 3.15 % Dose; % Dose/1% Body weight: Blood (0.05 mg/kg AEDP): 0.357 % Dose/1% Body weight; % Dose/1% Body weight: Bone Ave (0.05 mg/kg AEDP): 12.34 % Dose/1% Body weight; % Dose/1% Body weight: Femur (0.05 mg/kg AEDP): 12.62 % Dose/1% Body weight; % Dose/1% Body weight: Kidneys (0.05 mg/kg AEDP): 0.551 % Dose/1% Body weight; % Dose/1% Body weight: Liver (0.05 mg/kg AEDP): 0.134 % Dose/1% Body weight; % Dose/1% Body weight: Marrow (0.05 mg/kg AEDP): 0.221 % Dose/1% Body weight; % Dose/1% Body weight: Muscle (0.05 mg/kg AEDP): 0.118 % Dose/1% Body weight; % Dose/1% Body weight: Pelvis (0.05 mg/kg AEDP): 11.44 % Dose/1% Body weight; % Dose/1% Body weight: Spine (0.05 mg/kg AEDP): 11.60 % Dose/1% Body weight; % Dose/1% Body weight: Tibia (0.05 mg/kg AEDP): 13.69 % Dose/1% Body weight; % Dose: Urine (0.05 mg/kg AEDP): 11.95 % Dose; % Dose in Whole Organ: Blood (0.05 mg/kg EHDP): 3.39 % Dose; % Dose in Whole Organ: Kidneys (0.05 mg/kg EHDP): 0.46 % Dose; % Dose in Whole Organ: Liver (0.05 mg/kg EHDP): 0.77 % Dose; % Dose in Whole Organ: Marrow (0.05 mg/kg EHDP): 0.61 % Dose; % Dose in Whole Organ: One Femur (0.05 mg/kg EHDP): 3.33 % Dose; % Dose/1%-body weight: Blood (0.05 mg/kg EHDP): 0.485 % Dose/1%-body weight; % Dose/1%-body weight: Femur (0.05 mg/kg EHDP): 11.51 % Dose/1%-body weight; % Dose/1%-body weight: Kidney (0.05 mg/kg EHDP): 0.616 % Dose/1%-body weight; % Dose/1%-body weight: Liver (0.05 mg/kg EHDP): 0.210 % Dose/1%-body weight; % Dose/1%-body weight: Marrow (0.05 mg/kg EHDP): 0.291 % Dose/1%-body weight; % Dose: Urine (0.05 mg/kg EHDP): 13.4 % Dose; % Dose in Whole Organ: Blood (0.05 mg/kg MDP): 3.66 % Dose; % Dose in Whole Organ: Kidneys (0.05 mg/kg MDP): 0.46 % Dose; % Dose in Whole Organ: Liver (0.05 mg/kg MDP): 0.71 % Dose; % Dose in Whole Organ: Marrow (0.05 mg/kg MDP): 0.53 % Dose; % Dose in Whole Organ: Muscle (0.05 mg/kg MDP): 5.89 % Dose; % Dose in Whole Organ: One Femur (0.05 mg/kg MDP): 2.53 % Dose; % Dose/1% Body weight: Blood (0.05 mg/kg MDP): 0.52 % Dose/1% body weight; % Dose/1% Body weight: Femur (0.05 mg/kg MDP): 9.10 % Dose/1% body weight; % Dose/1% Body weight: Kidneys (0.05 mg/kg MDP): 0.9 % Dose/1% body weight; % Dose/1% Body weight: Liver (0.05 mg/kg MDP): 0.22 % Dose/1% body weight; % Dose/1% Body weight: Marrow (0.05 mg/kg MDP): 0.24 % Dose/1% body weight; % Dose/1% Body weight: Muscle (0.05 mg/kg MDP): 0.14 % Dose/1% body weight; % Dose/1% Body weight: Pelvis (0.05 mg/kg MDP): 8.33 % Dose/1% body weight; % Dose/1% Body weight: Spine (0.05 mg/kg MDP): 6.75 % Dose/1% body weight; % Dose/1% Body weight: Tibia (0.05 mg/kg MDP): 4.94 % Dose/1% body weight; % Dose/1% body weight: Ave Bone (0.05 mg/kg MDP): 7.29 % Dose/1% body weight; % Dose: Urine (0.05 mg/kg MDP): 23.16 % Dose
